These results are taken from patent US10100077B2, “6-aryl-9-glycosylpurines and use thereof” (UNIVERZITA PALACKEHO V OLOMOUCI, priority 2014, dated 2018).

A value given as a limit tells only on which side of the number the result lay.

Data set [1] can be described thus: Calcein AM cytotoxicity assay, MCF-7. Format: cell-based. Particulars: human, MCF-7 breast cancer cells. Summed up: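 K562, MCF-7 and NIH3T3 cells (10^4/well) in DMEM with 10% FBS were preincubated for 24 hrs, then given six 4-fold dilutions, usually from 166.7 μM, in duplicate for 72 hrs at 37° C. Viability was read by Calcein AM fluorescence after 1 hour, with GI50 from survival relative to control.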

The test system of data set [2] is skin fibroblasts BJ and keratinocytes HaCaT. Put plainly: SRB in vitro toxicity test. In kind it is cell-based. Particulars: Homo sapiens, 72 hour treatment, maximal concentration 50 microM. A digest of the protocol:
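BJ fibroblasts and HaCaT keratinocytes were exposed for 72 h to sixfold-diluted compound (maximum 50 μM), with DMSO as vehicle. Cells were TCA-fixed and stained with SRB, and absorbance was read at 564 nm. IC50 was calculated from dose-response curves.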

`COc1cccc(CNc2ncnc3c2ncn3[C@@H]2O[C@H](CO)[C@@H](O)[C@@H]2O)c1` [6-(3-methoxybenzylamino)-9-β-D-arabinofuranosylpurine]: the GI50 at 72 h in data set [1] was over 100 µM. Moreover, in data set [2], the IC50 is over 50 µM.

One may read the GI50 as the concentration giving 50% growth inhibition. One may read the IC50 as the point on the concentration scale where inhibition reaches its midpoint.
